Measurements reported in US3932382A, “Dideoxybutirosin derivative” (Sankyo Company Limited, priority 1973, dated 1976).
In brackets after ≈: the same amount, converted by molar mass. Like-named read-outs stand apart in the source and are kept apart here.

Key:
E. coli 704-1 = test: Protecting Effects in Mice (Table II); assay type: in vivo; conditions: 2 doses subcutaneously at 0 and 4 hours post-infection
From the text: (§1) Protecting Effects of 3',4'-Dideoxybutirosin A in Mice
ED50 : mg./kg./dose (2 doses subcutaneously at 0 and […]

E. coli 665 [1] = test: Protecting Effects in Mice (Table II); assay type: in vivo; conditions: 2 doses subcutaneously at 0 and 4 hours post-infection, butirosin-resistant strain
From the text: as §1
ED50 : mg./kg./dose (2 doses subcutaneously at 0 and
*Butirosin-resistant strain

Staph. aureus 56 = test: Minimum Inhibitory Concentration (Table I); assay type: cell-based; conditions: Staphylococcus aureus, Heart-Infusion Agar
From the text: (§2) Minimum Inhibitory Concentration of 3',4'-
(§3) Medium : Heart-Infusion Agar

Shigella flexneri 2a = test: Minimum Inhibitory Concentration (Table I); assay type: cell-based; conditions: Heart-Infusion Agar
From the text: as §2, §3

Proteus vulgaris 025 = test: Minimum Inhibitory Concentration (Table I); assay type: cell-based; conditions: Heart-Infusion Agar
From the text: as §2, §3

Klebsiella 806 = test: Minimum Inhibitory Concentration (Table I); assay type: cell-based; conditions: Heart-Infusion Agar
From the text: as §2, §3

Salmonela enteritidis = test: Minimum Inhibitory Concentration (Table I); assay type: cell-based; conditions: Heart-Infusion Agar
From the text: as §2, §3

[2] = tested on: Bacillus subtilis P C I-219; test: Minimum Inhibitory Concentration (Table I); assay type: cell-based; conditions: PCI219, Heart-Infusion Agar
From the text: as §2, §3

Escherichia coli N I H J = test: Minimum Inhibitory Concentration (Table I); assay type: cell-based; conditions: Heart-Infusion Agar
From the text: as §2, §3

[3] = tested on: Pseudomonas aeruginosa Scr.; test: Minimum Inhibitory Concentration (Table I); assay type: cell-based; conditions: Heart-Infusion Agar
From the text: as §2, §3

[4] = tested on: Staphylococcus aureus 209P; test: Minimum Inhibitory Concentration (Table I); assay type: cell-based; conditions: Heart-Infusion Agar
From the text: as §2, §3

[5] = tested on: butirosin-resistant bacteria; test: Antibacterial activity against butirosin-resistant bacteria, statement; assay type: cell-based
From the text: as §2
(§4) Mark *means butirosin-resistant bacteria
as §3

[6] = for Death incidence: mouse, in vivo
From the text: Acute Toxicities of 3',4'-Dideoxybutirosin A
Mice : ddY strain, male, 20 ± 0.2 g.

[7] = tested on: gram-positive and -negative bacteria; test: Antibacterial activity, general statement; assay type: cell-based
E. coli 665 [8] = test: Minimum Inhibitory Concentration (Table I); assay type: cell-based; conditions: Escherichia coli, Heart-Infusion Agar, butirosin-resistant bacteria
From the text: as §2, §4, §3

E. coli 620 = test: Minimum Inhibitory Concentration (Table I); assay type: cell-based; conditions: Escherichia coli, Heart-Infusion Agar, butirosin-resistant bacteria
From the text: as §2, §4, §3

[9] = tested on: Pseudomonas aeruginosa 1055; test: Minimum Inhibitory Concentration (Table I); assay type: cell-based; conditions: Heart-Infusion Agar, butirosin-resistant bacteria
From the text: as §2, §4, §3

[10] = tested on: butirosin sensitive strains; test: Antibacterial activity against butirosin sensitive strains, statement; assay type: cell-based
From the text: as §2, §3

[11] = tested on: E. coli clinical isolates (125 strains); test: Susceptibility of Clinical Isolates (Table III); assay type: cell-based; conditions: of 125 strains
From the text: (§5) Susceptibility of Clinical Isolates to 3',4'-

[12] = tested on: P. aeruginosa clinical isolates (102 strains); test: Susceptibility of Clinical Isolates (Table III); assay type: cell-based; conditions: of 102 strains
From the text: as §5

NCC[C@H](O)C(=O)N[C@@H]1C[C@H](N)[C@@H](O[C@H]2O[C@H](CN)CC[C@H]2N)[C@H](O[C@@H]2O[C@H](CO)[C@H](O)[C@H]2O)[C@H]1O [3',4'-Dideoxybutirosin A]
ED50 (E. coli 704-1; Escherichia coli, 7041, sc, read-out: ED50): 2.3 mg/kg
ED50 (E. coli 665 [1]; Escherichia coli, 665, sc, read-out: ED50): 2.43 mg/kg
MIC (Staph. aureus 56): 0.4 µg/mL (≈ 0.764 µM)
MIC (Shigella flexneri 2a): 3.1 µg/mL (≈ 5.92 µM)
MIC (Proteus vulgaris 025): 0.8 µg/mL (≈ 1.53 µM)
MIC (Klebsiella 806): 0.8 µg/mL (≈ 1.53 µM)
MIC (Salmonela enteritidis): 1.5 µg/mL (≈ 2.86 µM)
MIC [2]: 0.1 µg/mL (≈ 0.191 µM)
MIC (Escherichia coli N I H J): 0.4 µg/mL (≈ 0.764 µM)
MIC [3]: 3.1 µg/mL (≈ 5.92 µM)
MIC [4]: 0.1 µg/mL (≈ 0.191 µM)
activity against butirosin-resistant bacteria [5]: an activity against butirosin -resistant bacteria
activity against butirosin-resistant bacteria ([5]; listed as 3', 4'-dideoxybutirosin A (I)): outstanding activities
toxicity ([6]; as compared with the prior similar aminoglycoside antibiotics): considerably low toxicity
Death incidence ([6]; iv, 250 mg/kg): 0/3
Death incidence ([6]; iv, 500 mg/kg): 1/2
Death incidence ([6]; sc, 2000 mg/kg): 0/3
antibacterial activities [7]: broad antibacterial activities
MIC (E. coli 665 [8]): 3.1 µg/mL (≈ 5.92 µM)
MIC (E. coli 620): 3.1 µg/mL (≈ 5.92 µM)
MIC [9]: 6.2 µg/mL (≈ 11.8 µM)
activities against butirosin sensitive strains [10]: outstanding activities
number of strains with MIC 0.8 mcg./ml. ([11]; MIC 0.8 mcg./ml.): 0 strains
number of strains with MIC 1.5 mcg./ml. ([11]; MIC 1.5 mcg./ml.): 0 strains
number of strains with MIC 3.1 mcg./ml. ([11]; MIC 3.1 mcg./ml.): 0 strains
number of strains with MIC 6.2 mcg./ml. ([11]; MIC 6.2 mcg./ml.): 6 strains
number of strains with MIC 12.5 mcg./ml. ([11]; MIC 12.5 mcg./ml.): 100 strains
number of strains with MIC 25 mcg./ml. ([11]; MIC 25 mcg./ml.): 15 strains
number of strains with MIC 50 mcg./ml. ([11]; MIC 50 mcg./ml.): 2 strains
number of strains with MIC 100 mcg./ml. ([11]; MIC 100 mcg./ml.): 2 strains
number of strains with MIC 200 mcg./ml. ([11]; MIC 200 mcg./ml.): 0 strains
number of strains with MIC >200 mcg./ml. ([11]; MIC >200 mcg./ml.): 0 strains
number of strains with MIC 0.8 mcg./ml. ([12]; MIC 0.8 mcg./ml.): 1 strains
number of strains with MIC 1.5 mcg./ml. ([12]; MIC 1.5 mcg./ml.): 3 strains
number of strains with MIC 3.1 mcg./ml. ([12]; MIC 3.1 mcg./ml.): 5 strains
number of strains with MIC 6.2 mcg./ml. ([12]; MIC 6.2 mcg./ml.): 20 strains
number of strains with MIC 12.5 mcg./ml. ([12]; MIC 12.5 mcg./ml.): 41 strains
number of strains with MIC 25 mcg./ml. ([12]; MIC 25 mcg./ml.): 21 strains
number of strains with MIC 50 mcg./ml. ([12]; MIC 50 mcg./ml.): 3 strains
number of strains with MIC 100 mcg./ml. ([12]; MIC 100 mcg./ml.): 5 strains
number of strains with MIC 200 mcg./ml. ([12]; MIC 200 mcg./ml.): 2 strains
number of strains with MIC >200 mcg./ml. ([12]; MIC >200 mcg./ml.): 1 strains

Butirosin [reference compound]
ED50 (E. coli 704-1): 2.47 mg./kg./dose
ED50 (E. coli 665 [1]): 146.3 mg./kg./dose
